Measurements from PMC6784244 (Toxins, 2019).

Columns and labels:
[1] = system: Pseudomonas aeruginosa (ATCC CRM-9027)
[2] = system: HUVEC (human normal endothelial cells); format: cell-based; conditions: 48 h exposure, 0-100 µM, resazurin fluorescence; means ± S.D, n = 3; read-out: IC50 on cell viability, HUVEC
Experimental: (§1) The impact of ENN or BEA on the viability of human cells were evaluated as previously described. Cells used were human normal lung epithelial cells BEAS-2B (ATCC CRL-9609), human intestinal cell line Caco-2 (ATCC HTB-37), human normal epidermal keratinocytes (HEK) (from Lonza), human liver cell line HEPG2 (ATCC HB-8065), human normal endothelial cells (Human Umbilical Vein Endothelial Cells, HUVEC) (from Sigma-Aldrich, Lyon, France), and human gastric cell line N87 (ATCC CRL-5822). BEAS-2B, Caco-2 and HEPG2 cells were cultured in DMEM supplemented with 10% fetal calf serum (FCS), 1% L-glutamine, and 1% antibiotics (all from Invitrogen (Carlsbad, CA, USA). N87 cells were cultured in RPMI media supplemented with 10% fetal calf serum (FCS), 1% L-glutamine, and 1% antibiotics (all from Invitrogen, Carlsbad, CA, USA). HEK and HUVEC cells were cultured in specific medium (from Lonza and Sigma Aldrich, respectively). Cells were routinely grown on 25 cm^2 flasks and maintained in a 5% CO2 incubator at 37 °C. For toxicity assay, human cells grown on 25 cm^2 flasks were detached using trypsin-EDTA solution (from Thermofisher), counted using Malassez counting chamber, diluted in appropriate culture media, and seeded into 96-well cell culture plates (Greiner bio-one, Paris, France) at approximately 10^4 cells per well. The cells were left to grow for 48–72 h at 37 °C in a 5% CO2 incubator until they reached confluence. Media from wells was then aspirated and cells were treated with 100 µL of appropriate culture media containing increasing concentrations of ENN or BEA (from 0 to 100 µM, 1:2 serial dilution). […] The plates were then incubated at 37 °C for 48 h. Resazurin-based in vitro toxicity assay kit (from Sigma-Aldrich, Lyon, France) was then used to assess the viability of the cells following manufacturer’s instructions. Briefly, resazurin stock solution was diluted 1:10 in sterile PBS containing calcium and magnesium (PBS^++, pH 7.4). Plates were aspirated and 100 µL of the diluted solution were added per wells. After 4 h incubation at 37 °C, fluorescence intensity was measured using microplate reader (Biotek, Synergy Mx, Colmar, France) with an excitation wavelength of 530 nm and an emission wavelength of 590 nm. The fluorescence values were normalized by the controls (untreated cells) and expressed as percentage of cell viability. The IC50 values of ENN or BEA (i.e., the concentrations causing a reduction of 50% of the cell viability) were calculated using GraphPad® Prism 7 software (San Diego, CA, USA). Experiments were conducted in triplicate (n = 3).

[3] = system: Caco-2 (human intestinal cell line); format: cell-based; conditions: 48 h exposure, 0-100 µM, resazurin fluorescence; means ± S.D, n = 3; read-out: IC50 on cell viability, Caco-2
Experimental: as §1

[4] = system: HEPG2 (human liver cell line); format: cell-based; conditions: 48 h exposure, 0-100 µM, resazurin fluorescence; means ± S.D, n = 3; read-out: IC50 on cell viability, HEPG2
Experimental: as §1

[5] = system: BEAS-2B (human normal lung epithelial cells); format: cell-based; conditions: 48 h exposure, 0-100 µM, resazurin fluorescence; means ± S.D, n = 3; read-out: IC50 on cell viability, BEAS-2B
Experimental: as §1

[6] = system: Bacillus subtilis (ATCC 6633)
[7] = system: N87 (human gastric cell line); conditions: 48 h
[8] = system: C. perfringens; format: cell-based, Clostridium perfringens

CC[C@H](C)[C@H]1C(=O)O[C@H](C(C)C)C(=O)N(C)[C@@H]([C@@H](C)CC)C(=O)O[C@H](C(C)C)C(=O)N(C)[C@@H](C(C)C)C(=O)O[C@H](C(C)C)C(=O)N1C [ENN A1]
MIC, P. aeruginosa [1]: >100 µM
IC50 [2]: 4.6 ± 0.9 µM
IC50 [3]: 2.7 ± 0.5 µM
IC50 [4]: 5.6 ± 1.1 µM
IC50 [5]: 6.4 ± 1.5 µM
MIC, B. subtilis [6]: 12.5 to 25 µM
IC50 [7]: 0.003 ± 0.002 µM

CC[C@H](C)[C@H]1C(=O)O[C@H](C(C)C)C(=O)N(C)[C@@H]([C@@H](C)CC)C(=O)O[C@H](C(C)C)C(=O)N(C)[C@@H]([C@@H](C)CC)C(=O)O[C@H](C(C)C)C(=O)N1C [ENN A]
MIC, P. aeruginosa [1]: >100 µM
IC50 [2]: 2.8 ± 0.6 µM
IC50 [3]: 1.1 ± 0.2 µM
IC50 [4]: 3 ± 0.7 µM
IC50 [5]: 5.7 ± 1.2 µM
MIC, B. subtilis [6]: 6.25 to 12.5 µM
percentage of membrane permeabilization at 100 µM, 120 min [8]: 37.1 ± 6.7%
percentage of permeabilization at four times the MIC [8]: 7.2 ± 2.5%
IC50 [7]: 0.01 ± 0.01 µM

CC[C@H](C)[C@H]1C(=O)O[C@H](C(C)C)C(=O)N(C)[C@@H](C(C)C)C(=O)O[C@H](C(C)C)C(=O)N(C)[C@@H](C(C)C)C(=O)O[C@H](C(C)C)C(=O)N1C [ENN B1]
MIC, P. aeruginosa [1]: >100 µM
IC50 [2]: 7 ± 1.1 µM
IC50 [3]: 3.1 ± 0.5 µM
IC50 [4]: 5.6 ± 1.4 µM
IC50 [5]: 12.7 ± 2.8 µM
MIC, B. subtilis [6]: 25 to 50 µM
IC50 [7]: 0.008 ± 0.008 µM

CC(C)[C@H]1C(=O)O[C@H](C(C)C)C(=O)N(C)[C@@H](C(C)C)C(=O)O[C@H](C(C)C)C(=O)N(C)[C@@H](C(C)C)C(=O)O[C@H](C(C)C)C(=O)N1C [ENN B]
MIC, P. aeruginosa [1]: >100 µM
IC50 [2]: 17.3 ± 3.3 µM
IC50 [3]: 4.6 ± 1.3 µM
IC50 [4]: 3.4 ± 0.7 µM
IC50 [5]: 43.7 ± 7.7 µM
MIC, B. subtilis [6]: >100 µM
percentage of membrane permeabilization at 100 µM, 120 min [8]: 19.6 ± 7.9%
IC50 [7]: 1.7 ± 0.1 µM
